Reference: patent publication US4559323A, “A41030 Antibiotics” (Eli Lilly and Company, priority 1984, dated 1985)
Where two headings read alike, the source gives them in different places.

What was measured:
Bacteroides fragilis = assay: Agar-dilution MIC (anaerobes); type: cell-based; settings: Table 14
Text: (§1) The agar-dilution procedure described by the International Collaborative study (ICS) group was used to determine the minimum inhibitory concentrations (MIC's).

Clostridium septicum = assay: Agar-dilution MIC (anaerobes); type: cell-based; settings: Table 14; Clostridium septicum 1128
Bacteroides corrodens = assay: Agar-dilution MIC (anaerobes); type: cell-based; settings: Table 14; Bacteroides corrodens 1874
Solubility in solvents = type: physicochemical; settings: solvents as named
Text: The seven antibiotic factors are recovered from the fermentation and are obtained as a mixture, the A41030 complex. It will be recognized that the ratio of the factors in the A41030 complex will vary, depending upon the fermentation conditions used. The individual factors […], and G are separated and isolated as individual compounds, as hereinafter described.

[1] = system: Peptostreptococcus intermedius; assay: Agar-dilution MIC (anaerobes); type: cell-based; settings: Table 14; Peptostreptococcus intermedius 1264
Peptococcus prevoti = assay: Agar-dilution MIC (anaerobes); type: cell-based; settings: Table 14; Peptococcus prevoti 1281
Salmonella typhi = assay: Agar-dilution MIC; type: cell-based; settings: Table 17, 24 hours
Staphylococcus aureus = assay: Agar-dilution MIC; type: cell-based; settings: Table 17, 24 hours
Propionibacterium acnes = assay: Agar-dilution MIC (anaerobes); type: cell-based; settings: Table 14; Propionibacterium acnes 79
Text: Antibiotic A41030 factors A, B and C have also been tested and found to be active against a genus of anaerobic bacteria identified as Propionibacterium acnes.

Staph. aureus = assay: Experimental bacterial infection in mice, subcutaneous ED50; type: in vivo; settings: two doses subcutaneously
Method: (§2) All of the A41030 factors tested have shown in vivo antimicrobial activity against experimental bacterial infections. When two doses of test compound were administered subcutaneously to mice in illustrative infections, the activity observed is measured as an ED50 value [effective dose in mg./kg. to protect fifty percent of the test animals: See Warren Wick, et al., J. Bacteriol. 81, 233-235 (1961)].

S. pyogenes = assay: as above; type: in vivo; settings: two doses subcutaneously
Method: as §2

S. pneumoniae = assay: as above; type: in vivo; settings: two doses subcutaneously
Method: as §2

[2] = system: Streptococcus sp. (Group D); assay: Agar-dilution MIC; type: cell-based; settings: Table 17, 24 hours
Text: as §1

[3] = system: Staphylococcus epidermidis; assay: Agar-dilution MIC; type: cell-based; settings: Table 17; 24 hours; Staphylococcus epidermidis EPI1
Text: as §1

Streptococcus pyogenes = assay: Agar-dilution MIC; type: cell-based; settings: Table 17; 24 hours; Streptococcus pyogenes C203
Text: as §1

Streptococcus pneumoniae = assay: Agar-dilution MIC; type: cell-based; settings: Table 17; 24 hours; Streptococcus pneumoniae Park I
Text: as §1

[4] = system: Bacteroides melaninogenicus; assay: Agar-dilution MIC (anaerobes); type: cell-based; settings: Table 14; Bacteroides melaninogenicus 2736
[5] = system: Peptococcus asaccharolyticus; assay: Agar-dilution MIC (anaerobes); type: cell-based; settings: Table 14; Peptococcus asaccharolyticus 1302
Hemophilus influenzae = assay: Agar-dilution MIC; type: cell-based; settings: Table 17, 24 hours
Clostridium difficile = type: cell-based
Text: The A41030 antibiotic factors A, B, C, D, E, F, and G, are also active against a number of strains of Clostridium difficile, as determined by the agar-dilution method.

B. thetaiotaomicron = type: cell-based; settings: Table 14; Bacteroides thetalotaomicron 1438
Text: as §1

Clostridium perfringens = type: cell-based; settings: Table 14; Clostridium perfringens 81
[6] = Electrometric titration (pKa); type: physicochemical; settings: electrometric titration in 66% dimethylformamide in water
Fusobacterium symbiosum = assay: Agar-dilution MIC (anaerobes); type: cell-based; settings: Table 14; Fusobacterium symbiosum 1470
Bacteroides vulgatis = assay: Agar-dilution MIC (anaerobes); type: cell-based; settings: Table 14; Bacteroides vulgatis 1211
[7] = system: Peptostreptococcus anaerobius; assay: Agar-dilution MIC (anaerobes); type: cell-based; settings: Table 14; Peptostreptococcus anaerobius 1428
Eubacterium aerofaciens = assay: Agar-dilution MIC (anaerobes); type: cell-based; settings: Table 14; Eubacterium aerofaciens 1235
[8] = system: Fusobacterium necrophorum; assay: Agar-dilution MIC (anaerobes); type: cell-based; settings: Table 14; Fusobacterium necrophorum 6054A

A41030 factor F
MIC (Bacteroides fragilis; Bacteroides fragilis 111): 32 µg/mL
MIC (Bacteroides fragilis; Bacteroides fragilis 1877): 32 µg/mL
MIC (Bacteroides fragilis; Bacteroides fragilis 1936B): 32 µg/mL
MIC (Clostridium septicum): 1.0 µg/mL
MIC (Bacteroides corrodens): 32 µg/mL
Solubility (Solubility in solvents): soluble in the same solvents as factor A
MIC [1]: 1.0 µg/mL
MIC (Peptococcus prevoti): 32 µg/mL
MIC (Salmonella typhi; Salmonella typhi 1335): > 128 µg/mL
MIC (Salmonella typhi; Salmonella typhi X514): > 128 µg/mL
MIC (Staphylococcus aureus; Staphylococcus aureus 3055): 0.5 µg/mL
MIC (Staphylococcus aureus; Staphylococcus aureus S13E): 1 µg/mL
MIC (Staphylococcus aureus; Staphylococcus aureus V41): 0.5 µg/mL
MIC (Staphylococcus aureus; Staphylococcus aureus X400): 1 µg/mL
MIC (Propionibacterium acnes): 1.0 µg/mL
ED50 (Staph. aureus): < 0.31 mg/kg
ED50 (S. pyogenes): > 5.0 mg/kg
ED50 (S. pneumoniae): > 5.0 mg/kg
MIC ([2]; Streptococcus sp. Group D 9960): 4 µg/mL
MIC ([2]; Streptococcus sp. Group D X66): 4 µg/mL
MIC [3]: 0.25 µg/mL
MIC (Streptococcus pyogenes): 2 µg/mL
MIC (Streptococcus pneumoniae): 2 µg/mL
MIC [4]: 1.0 µg/mL
MIC [5]: ≤ 0.25 µg/mL
MIC (Hemophilus influenzae; Haemophilus influenzae 76): 32 µg/mL
MIC (Hemophilus influenzae; Haemophilus influenzae C.L.): 32 µg/mL
MIC (Clostridium difficile): 1 µg/mL
MIC (Clostridium difficile; Table 16, C. difficile 78): 1.0 µg/mL
MIC (Clostridium difficile; Table 16, C. difficile 107B): 1.0 µg/mL
MIC (Clostridium difficile; Table 16, C. difficile 111F): 2 µg/mL
MIC (Clostridium difficile; Table 16, C. difficile 1153): 2 µg/mL
MIC (Clostridium difficile; Table 16, C. difficile 2634): 2 µg/mL
MIC (Clostridium difficile; Table 16, C. difficile 3424-5B): 1.0 µg/mL
MIC (Clostridium difficile; Table 16, C. difficile 3816): 1.0 µg/mL
MIC (Clostridium difficile; Table 16, C. difficile 3950): 1.0 µg/mL
MIC (Clostridium difficile; Table 16, C. difficile 6890): 1.0 µg/mL
MIC (Clostridium difficile; Table 16, C. difficile 8484): 1.0 µg/mL
MIC (Clostridium difficile; Table 16, C. difficile A-194): 1.0 µg/mL
MIC (Clostridium difficile; Table 16, C. difficile A-195): 1.0 µg/mL
MIC (Clostridium difficile; Table 16, C. difficile A-196): 2 µg/mL
MIC (Clostridium difficile; Table 16, C. difficile A-279): 1.0 µg/mL
MIC (Clostridium difficile; Table 16, C. difficile A-280): 1.0 µg/mL
MIC (Clostridium difficile; Table 16, C. difficile A-281): 2 µg/mL
MIC (Clostridium difficile; Table 16, C. difficile WAL-2112): 1.0 µg/mL
MIC (Clostridium difficile; Table 16, C. difficile WAL-3657): 1.0 µg/mL
MIC (Clostridium difficile; Table 16, C. difficile WAL-4268): 1.0 µg/mL
MIC (B. thetaiotaomicron): 64 µg/mL
MIC (Clostridium perfringens): 1.0 µg/mL
pKa, first titratable group [6]: about 5.4
pKa, second titratable group [6]: ~7.1
MIC (Fusobacterium symbiosum): 1.0 µg/mL
MIC (Bacteroides vulgatis): 32 µg/mL
MIC [7]: 32 µg/mL
MIC (Eubacterium aerofaciens): 1.0 µg/mL
MIC [8]: 1.0 µg/mL
